# Experimental data as given in patent publication US20160287575A1, “COMPOSITIONS AND METHODS FOR THE TREATMENT OF DISEASES INVOLVING HIPPO PATHWAY” (DUKE UNIVERSITY, priority 2013, published 2016).
# Residues, ends and D or L forms follow the SMILES beside them. *: point of attachment. Cbz = O=C(OCc1ccccc1)*
# Experiments:
# YAP = assay: pharmacological block of YAP protein turnover in RASSF4-deficient aRMS cells; format: cell-based, human; conditions: RASSF4-deficient aRMS cells versus control; data not shown
# From the text: Finally, we examined whether there was a connection between RASSF4 and YAP. […] Since YAP protein is turned over by sequential phosphorylation and ubiquitin-mediated degradation (Zhao et al., Genes Dev. 24:72-85 (2010)), we attempted to pharmacologically block YAP protein turnover in RASSF4-deficient cells using MG132 or IC 261. […] When examined at the transcriptional level, we observed a decreasing trend in YAP mRNA levels that only reached significance with one RASSF4 shRNA. Since RASSF4 loss of function was causing growth arrest and senescence, we reasoned that these effects on YAP could be caused by the growth arrest itself and RASSF4 loss. […] Instead, cells expressing YAP S127A and RASSF4 shRNA had more pronounced mitotic defects (data not shown). Therefore, while we cannot identify a clear connection between RASSF4 and YAP in aRMS at this time, Hippo signaling is clearly dysregulated at multiple levels in RMS through RASSF4-MST1 and YAP-mediated mechanisms (FIG. 7F).
# LATS1 = assay: nocodazole treatment, LATS1 phosphorylation by immunoblot; format: cell-based, human; conditions: nocodazole-treated HSMM^PF+H+M cells, control and RASSF4-knockdown
# MST1 = target: T1, MST1 (Homo sapiens, UniProt Q13043, K59R); assay: staurosporine stimulation, MST1 phosphorylation by immunoblot; format: cell-based; conditions: MST1 K59R expressing HSMM^PF+H+M cells, 1 μM STS, 1 hour
# T1 construct: expressed in transfected cells; host or cells: HSMM^PF+H+M cells (human skeletal muscle myoblasts expressing PAX3-FOXO1, hTERT, MycN), with or without RASSF4 shRNA
# T1 sequence (Q13043 1-487 K59R): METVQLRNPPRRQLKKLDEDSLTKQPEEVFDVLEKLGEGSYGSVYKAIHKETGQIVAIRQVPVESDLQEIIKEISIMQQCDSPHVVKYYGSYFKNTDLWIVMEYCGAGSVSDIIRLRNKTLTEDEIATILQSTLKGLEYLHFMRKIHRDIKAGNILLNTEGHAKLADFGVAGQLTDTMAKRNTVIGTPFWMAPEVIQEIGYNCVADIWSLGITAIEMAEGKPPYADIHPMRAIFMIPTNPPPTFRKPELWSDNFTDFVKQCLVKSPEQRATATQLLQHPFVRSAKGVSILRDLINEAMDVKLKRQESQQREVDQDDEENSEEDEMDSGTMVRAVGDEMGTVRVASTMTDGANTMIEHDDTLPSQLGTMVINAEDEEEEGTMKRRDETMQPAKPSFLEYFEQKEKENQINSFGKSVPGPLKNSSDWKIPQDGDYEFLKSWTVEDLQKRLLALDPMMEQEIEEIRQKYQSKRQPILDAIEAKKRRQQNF
# Protocol: (A) RASSF4 deficiency causes MST1 phosphorylation and cleavage upon staurosporine (STS) treatment. Cells expressing FLAG-MST1 K59R were treated for 1 hour with 1 μM STS and examined for phosphor-MST1/2 and total MST1 by immunoblot. (B) Upon 1 hour treatment with 1 μM STS, RASSF4-deficient aRMS cells display higher cleaved caspase 3 as measured by immunoblot. In A and B, actin was used as a loading control.
# However, even without the ability to activate downstream signaling, MST1 K59R can still be regulated like wild-type MST1 through phosphorylation by upstream kinases and caspase cleavage. Since endogenous phospho-MST1 levels and MST1 cleavage products were in low abundance in aRMS cells and were difficult to detect, we used cells expressing MST1K59R to boost MST1 expression, while maintaining cell viability. We stimulated cells with staurosporine (STS), a well-established activator of MST1, and examined the role of RASSF4 in MST1 phosphorylation and cleavage (Graves et al., J. Biol. Chem 276:14909-14915 (2001)). […] This is the reported size of the MST1 cleavage fragment believed to be regulated by caspases (Graves et al. (2001); Cheung et al., Cell 113:507-517 (2003); Praskova et al., Biochem J. 381:453-462 (2004)). […]
# [1] = target: Yki/YAP and transcriptional coactivator TEAD/TEF transcription factors (Homo sapiens, UniProt P46937); conditions: identified in a screen; cited from earlier work
# Chain of Yki/YAP and transcriptional coactivator TEAD/TEF transcription factors (P46937 whole entry): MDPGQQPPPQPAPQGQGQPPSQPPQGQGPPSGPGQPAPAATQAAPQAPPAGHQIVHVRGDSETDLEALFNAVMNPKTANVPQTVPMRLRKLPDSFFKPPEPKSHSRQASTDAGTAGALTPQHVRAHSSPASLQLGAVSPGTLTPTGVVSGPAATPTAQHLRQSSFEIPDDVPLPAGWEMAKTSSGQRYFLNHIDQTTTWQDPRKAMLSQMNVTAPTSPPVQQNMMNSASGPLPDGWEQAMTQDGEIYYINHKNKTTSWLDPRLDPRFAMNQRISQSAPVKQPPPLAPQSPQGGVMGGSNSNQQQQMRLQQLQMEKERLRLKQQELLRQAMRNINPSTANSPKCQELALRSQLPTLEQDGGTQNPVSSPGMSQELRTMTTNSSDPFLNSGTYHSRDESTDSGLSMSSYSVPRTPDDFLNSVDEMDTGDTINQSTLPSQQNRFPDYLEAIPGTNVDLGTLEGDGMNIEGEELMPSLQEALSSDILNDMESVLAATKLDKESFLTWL
molecule,measurement,setting,value
COc1cc(OC)c(C=C2C(O)=Nc3ccccc32)c(OC)c1 [IC 261],phospho-YAP and total YAP levels,YAP,still lower
CC(C)C[C@@H](C=O)NC(=O)[C@H](CC(C)C)NC(=O)[C@H](CC(C)C)NC(=O)OCc1ccccc1 [MG132] (Cbz-Leu-Leu-Leu-aldehyde),phospho-YAP and total YAP levels,YAP,still lower
COC(=O)Nc1nc2ccc(C(=O)c3cccs3)cc2[nH]1 [nocodazole],phosphorylated LATS1,LATS1,reduction in phosphorylated LATS1
CN[C@@H]1C[C@H]2O[C@@](C)([C@@H]1OC)n1c3ccccc3c3c4c(c5c6ccccc6n2c5c31)C(=O)NC4 [staurosporine],phosphorylation of full-length MST1,MST1,increased phosphorylation of full-length MST1
verteporfin,disruption of physical interactions between Yki/YAP and TEAD/TEF,[1],capable of disrupting physical interactions
